Data published in patent US9670126B2, “Methods of making 15-hydroxy fatty acid derivatives” (Dignity Sciences Limited, priority 2013, dated 2017).
Values belong to the molecule of their own block, whether it stands above or below them.

What was measured:
[1] = cited from earlier work
[2] = Heat stability trial of HETrE under solvent removal conditions (reflux in 40% MtBE:cyclohexane), UPLC; format: physicochemical
Method: (§1) Previously, neat HETrE heated at 50° C.
A heat stability trial was conducted where a solution of HETrE (˜9.1 g) in 500 mL 40% MtBE: cyclohexane was heated at 75° C. (external oil bath temperature) at 400 mbar vacuum (condenser coolant temperature −0° C.). This established a gentle reflux. The solution was protected from light. Samples were withdrawn at various time points, under a nitrogen atmosphere, and analysed by UPLC (252 nm) (FIG. 15).
The conditions were designed to mimic the likely conditions encountered on a plant scale solvent removal from pooled column fractions. […] The reflux was extended over a further 112 hours.

[3] = Neat HETrE heated at 50° C. under vacuum; format: physicochemical; details: under vacuum (1822-129-4E), 1 major impurity, ester formed with itself
Method: as §1

[4] = Solubility (reactor cleaning); details: residues
[5] = Storage stability of freeze dried enzyme, judged in the DGLA reaction; details: stored at ambient, atmospheric conditions for two weeks; then 1.8 Munits/g DGLA
Method: It was also observed that the freeze dried enzyme supplied had good stability. Although recommended to be stored at −20° C., and desiccated after use, the batch was stored at ambient, atmospheric conditions for two weeks before being utilised in a reaction using the optimised enzyme loadings (1.8 Munits/g DGLA). […] The reaction was carried out in buffer solution to maintain pH and solubilise reaction components. Cysteine, a mild reducing agent, was used in place of sodium borohydride. Use of cysteine enabled the oxidation/reduction reaction to be carried out in one step. In addition no flammable hydrogen was generated during reaction/quench. Furthermore, fewer over-oxidation products were produced, likely due to cysteine's anti-oxidant properties. It is also believed that the addition of the reducing agent at beginning of the process helps to lessen irreversible enzyme inactivation by high concentrations of hydroperoxide, thus leading to lower enzyme requirement (e.g., cost savings) and lower potential for over-oxidation.

Molecule: N[C@@H](CSSC[C@H](N)C(=O)O)C(=O)O [cystine]
- solubility in 1M HCl with heating ([1]; 1M HCl with heating): 50 mg/mL
- solubility in basic solutions ([1]; basic solutions): soluble

Molecule: N[C@@H](CS)C(=O)O [Cysteine]
- solubility in ethanol ([1]; 19° C.): 1.5 g/100 g of ethanol

- degradation on extended refluxing ([2]; 4.5 days refluxing in 40% MtBE:cyclohexane, external temperature 75° C.): did not cause significant degradation
- degradation under plant-typical solvent evaporation conditions ([2]; in solution and on hot surfaces, timescale of <2 days): no significant degradation
- degradation of neat material [3]: showed degradation
- solubility in alcohols such as ethanol and methanol, or acetone [4]: readily soluble
Molecule: CCCCC[C@H](O)/C=C/C=C\C/C=C\CCCCCCC(=O)O [15(S)-HETrE, 15-(S)-hydroxyeicosatrienoic acid]

B1: freeze dried enzyme: commercial freeze-dried soybean lipoxygenase (protein, UniProt P08170 1-839, looked up)
Seed linoleate …: MFSAGHKIKGTVVLMPKNELEVNPDGSAVDNLNAFLGRSVSLQLISATKADAHGKGKVGKDTFLEGINTSLPTLGAGESAFNIHFEWDGSMGIPGAFYIKNYMQVEFFLKSLTLEAISNQGTIRFVCNSWVYNTKLYKSVRIFFANHTYVPSETPAPLVSYREEELKSLRGNGTGERKEYDRIYDYDVYNDLGNPDKSEKLARPVLGGSSTFPYPRRGRTGRGPTVTDPNTEKQGEVFYVPRDENLGHLKSKDALEIGTKSLSQIVQPAFESAFDLKSTPIEFHSFQDVHDLYEGGIKLPRDVISTIIPLPVIKELYRTDGQHILKFPQPHVVQVSQSAWMTDEEFAREMIAGVNPCVIRGLEEFPPKSNLDPAIYGDQSSKITADSLDLDGYTMDEALGSRRLFMLDYHDIFMPYVRQINQLNSAKTYATRTILFLREDGTLKPVAIELSLPHSAGDLSAAVSQVVLPAKEGVESTIWLLAKAYVIVNDSCYHQLMSHWLNTHAAMEPFVIATHRHLSVLHPIYKLLTPHYRNNMNINALARQSLINANGIIETTFLPSKYSVEMSSAVYKNWVFTDQALPADLIKRGVAIKDPSTPHGVRLLIEDYPYAADGLEIWAAIKTWVQEYVPLYYARDDDVKNDSELQHWWKEAVEKGHGDLKDKPWWPKLQTLEDLVEVCLIIIWIASALHAAVNFGQYPYGGLIMNRPTASRRLLPEKGTPEYEEMINNHEKAYLRTITSKLPTLISLSVIEILSTHASDEVYLGQRDNPHWTSDSKALQAFQKFGNKLKEIEEKLVRRNNDPSLQGNRLGPVQLPYTLLYPSSEEGLTFRGIPNSISI
- performance after storage [5]: No deterioration in performance
